According to US20240239842A1 (CHUGAI SEIYAKU KABUSHIKI KAISHA, priority 2021, published 2024):
Starred links: 1 amine or outer side, 2 acyl side, 3 side chain; linkers in the order of their positions; H or OH if unused. Positions of bridges follow the written chain, without caps; N, C: chain ends. Non-standard residues stand in square brackets, D forms with d. Residues, ends and D or L forms follow the SMILES beside them. *: point of attachment. hPhe(3-Cl-4-CF3) = N[C@@H](CCc1ccc(C(F)(F)F)c(Cl)c1)C(=O)O; X1 = CN([C@@H](CC1CCC(F)(F)CC1)C(=O)[*:2])[*:1]; NMePhe(4-Me) = CN[C@@H](Cc1ccc(C)cc1)C(=O)O; X4 = C#Cc1cccc(C[C@H](N[*:1])C(=O)[*:2])c1; X5 = O=C([C@H](Cc1cccc(F)c1F)N[*:1])[*:2]; Phe(3-I) = N[C@@H](Cc1cccc(I)c1)C(=O)O; X2 = CC(C)=CC[C@H](N[*:1])C(=O)[*:2]; NMeY = CN[C@@H](Cc1ccc(O)cc1)C(=O)O; NMeCha = CN[C@@H](CC1CCCCC1)C(=O)O; X6 = O=C(CN(CCN1CCNCC1)[*:1])[*:2]; X3 = C[C@H](CN(C)[*:1])C(=O)[*:2]; NMeChg = CN[C@H](C(=O)O)C1CCCCC1; NMeF = CN[C@@H](Cc1ccccc1)C(=O)O; Gly(cBu) = N[C@H](C(=O)O)C1CCC1; NMeD = CN[C@@H](CC(=O)O)C(=O)O; NMeL = CN[C@@H](CC(C)C)C(=O)O; NMehSer = CN[C@@H](CCO)C(=O)O; NMeV = CN[C@H](C(=O)O)C(C)C; d(β3hA) = C[C@@H](N)CC(=O)O; NMeS = CN[C@@H](CO)C(=O)O; Pip = O=C(O)[C@@H]1CCCCN1; NMeA = CN[C@@H](C)C(=O)O; NMeAib = CNC(C)(C)C(=O)O; Nle = CCCC[C@H](N)C(=O)O; Piperidide = C1CCN(*)CC1; Ac5c = NC1(C(=O)O)CCCC1; Aze = O=C(O)[C@@H]1CCN1; Sar = CNCC(=O)O

Key:
mutant KRAS (G12D) = mutant KRAS (G12D) (Homo sapiens, UniProt P01116, G12D); assay: Surface plasmon resonance (SPR) binding to mutant KRAS (G12D); conditions: SPR Biacore 8K+, Single Cycle Kinetics, 30° C., 10 μM GDP, 1:1 binding model; read-out: Dissociation Constant KD (nM) for Mutant KRAS (G12D)
wild type KRAS(WT) = wild type KRAS(WT) (Homo sapiens, UniProt P01116); assay: Surface plasmon resonance (SPR) binding to wild type KRAS; conditions: SPR Biacore 8K+, Single Cycle Kinetics, 30° C., 10 μM GDP, 1:1 binding model; read-out: Dissociation Constant KD (nM) for Wild Type KRAS

| SMILES | Kd (mutant KRAS (G12D)) [nM] | Kd (wild type KRAS(WT)) [nM] |
| --- | --- | --- |
| CC(C)=CC[C@@H]1NC(=O)[C@H](Cc2cccc(I)c2)NC(=O)CN(C)C(=O)[C@H](CC2CCC(F)(F)CC2)N(C)C(=O)[C@@H]2CCN2C(=O)[C@@H]2CCCCN2C(=O)[C@H](C2CCC2)NC(=O)[C@H](CC(C)C)N(C)C(=O)C[C@@H](C(=O)N2CCCCC2)N(C)C(=O)[C@H](CC(C)C)NC(=O)[C@H](Cc2ccccc2)N(C)C1=O [Compound 2, (1S,6S,9S,15S,18S,21S,24S,27S,31S,34S)-21-benzyl-34-cyclobutyl-9-[(4,4-difluorocyclohexyl)methyl]-15-[(3-iodophenyl)methyl]-24,31-diisobutyl-8,11,20,26,30-pentamethyl-18-(3-methylbut-2-enyl)-27-(piperidine-1-carbonyl)-3,8,11,14,17,20,23,26,30,33,36-undecazatricyclo[34.4.0.03,6]tetracontane-2,7,10,13,16,19,22,25,29,32,35-undecanone] ([NMeL][Gly(cBu)][Pip][Aze][X1][Sar][Phe(3-I)][X2][NMeF]L[NMeD]-Piperidide; lactam N-11) | 4.4 | 44 |
| CCCC[C@@H]1NC(=O)[C@H](Cc2cccc(I)c2)NC(=O)CN(C)C(=O)[C@H](Cc2ccc(C)cc2)N(C)C(=O)CN(C)C(=O)CN(C)C(=O)[C@H]([C@@H](C)CC)NC(=O)[C@H](CCOC)N(C)C(=O)C[C@@H](C(=O)N2CCCCC2)N(C)C(=O)[C@H](CC(C)C)NC(=O)[C@H](COC)N(C)C1=O [Compound 3, (3S,6S,9S,12S,18S,27S,30S,34S)-9-butyl-12-[(3-iodophenyl)methyl]-3-isobutyl-30-(2-methoxyethyl)-6-(methoxymethyl)-1,7,16,19,22,25,31-heptamethyl-27-[(1S)-1-methylpropyl]-34-(piperidine-1-carbonyl)-18-(p-tolylmethyl)-1,4,7,10,13,16,19,22,25,28,31-undecazacyclotetratriacontane-2,5,8,11,14,17,20,23,26,29,32-undecanone] ([NMehSer](Me)I[Sar][Sar][NMePhe(4-Me)][Sar][Phe(3-I)][Nle][NMeS](Me)L[NMeD]-Piperidide; lactam N-11) | 2.9 | 43 |
| C#Cc1cccc(C[C@@H]2NC(=O)CN(C)C(=O)[C@H](CC3CCCCC3)N(C)C(=O)CN(C)C(=O)CN(C)C(=O)[C@H]([C@@H](C)CC)NC(=O)[C@H](C)CN(C)C(=O)C[C@@H](C(=O)N3CCCCC3)N(C)C(=O)[C@H](CC(C)C)NC(=O)C(C)(C)N(C)C(=O)[C@H](Cc3ccc(OC)cc3)NC2=O)c1 [Compound 4, (3S,9S,12S,18S,27S,30R,35S)-18-(cyclohexylmethyl)-12-[(3-ethynylphenyl)methyl]-3-isobutyl-9-[(4-methoxyphenyl)methyl]-1,6,6,7,16,19,22,25,30,32-decamethyl-27-[(1S)-1-methylpropyl]-35-(piperidine-1-carbonyl)-1,4,7,10,13,16,19,22,25,28,32-undecazacyclopentatriacontane-2,5,8,11,14,17,20,23,26,29,33-undecaone] ([X3]I[Sar][Sar][NMeCha][Sar][X4]Y(Me)[NMeAib]L[NMeD]-Piperidide; lactam N-11) | 1.5 | 23 |

Next, values leading:

| Kd (mutant KRAS (G12D)) [nM] | Kd (wild type KRAS(WT)) [nM] | SMILES |
| --- | --- | --- |
| 3.6 | 19 | CCCC[C@@H]1NC(=O)[C@H](Cc2cccc(F)c2F)NC(=O)CN(C)C(=O)[C@H](Cc2ccc(OC)cc2)N(C)C(=O)[C@@H]2CCN2C(=O)[C@@H]2CCCCN2C(=O)[C@H](C2CCC2)NC(=O)[C@H](CC(C)C)N(C)C(=O)C[C@@H](C(=O)N2CCCCC2)N(C)C(=O)[C@H](CC(C)C)NC(=O)C(C)(C)N(C)C1=O [Compound 5, (1S,6S,9S,15S,18S,24S,27S,31S,34S)-18-butyl-34-cyclobutyl-15-[(2,3-difluorophenyl)methyl]-24,31-diisobutyl-9-[(4-methoxyphenyl)methyl]-8,11,20,21,21,26,30-heptamethyl-27-(piperidine-1-carbonyl)-3,8,11,14,17,20,23,26,30,33,36-undecazatricyclo[34.4.0.03,6]tetracontane-2,7,10,13,16,19,22,25,29,32,35-undecaone] ([NMeL][Gly(cBu)][Pip][Aze][NMeY](Me)[Sar][X5][Nle][NMeAib]L[NMeD]-Piperidide; lactam N-11) |
| 21 | 16 | CC[C@H](C)[C@@H]1NC(=O)[C@H](CC(C)C)N(C)C(=O)C[C@@H](C)NC(=O)[C@H](C(C)C)N(C)C(=O)C2(CCCC2)NC(=O)[C@@H]2CCCN2C(=O)[C@H](CCc2ccc(C(F)(F)F)c(Cl)c2)NC(=O)CN(C)C(=O)[C@H](CC2CCCCC2)N(C)C(=O)[C@@H]2CCN2C(=O)[C@H](C)N(C)C1=O [Compound 6, (3S,9S,12S,17S,20S,23S,27R,30S,36S)-3-[2-[3-chloro-4-(trifluoromethyl)phenyl]ethyl]-9-(cyclohexylmethyl)-23-isobutyl-30-isopropyl-7,10,17,18,24,27,31-heptamethyl-20-[(1S)-1-methylpropyl]spiro[1,4,7,10,15,18,21,24,28,31,34-undecazatricyclo[34.3.0.012,15]nonatriacontane-33,1′-cyclopentane]-2,5,8,11,16,19,22,25,29,32,35-undecaone] (cyclo([Ac5c][NMeV][d(β3hA)][NMeL]I[NMeA][Aze][NMeCha][Sar][hPhe(3-Cl-4-CF3)]P)) |
| 0.18 | 0.94 | CC[C@H](C)[C@@H]1NC(=O)[C@H](CC(C)C)N(C)C(=O)C[C@@H](C(=O)N2CCCCC2)N(C)C(=O)[C@H](C2CCCCC2)N(C)C(=O)C2(CCCC2)NC(=O)CN(CCN2CCNCC2)C(=O)[C@H](CCc2ccc(C(F)(F)F)c(Cl)c2)NC(=O)CN(C)C(=O)[C@H](CC2CCCCC2)N(C)C(=O)CN(C)C(=O)CN(C)C1=O [Compound 7, (11S,17S,26S,29S,33S,36S)-11-[2-[3-chloro-4-(trifluoromethyl)phenyl]ethyl]-36-cyclohexyl-17-(cyclohexylmethyl)-29-isobutyl-15,18,21,24,30,34,37-heptamethyl-26-[(1 S)-1-methylpropyl]-9-(2-piperazine-1-ylethyl)-33-(piperidine-1-carbonyl)-6,9,12,15,18,21,24,27,30,34,37-undecazaspiro[4.33]octatriacontane-7,10,13,16,19,22,25,28,31,35,38-undecaone, reference compound] ([NMeL]I[Sar][Sar][NMeCha][Sar][hPhe(3-Cl-4-CF3)][X6][Ac5c][NMeChg][NMeD]-Piperidide; lactam N-11) |
